According to patent US8053415B2, “Compounds having RD targeting motifs” (Washington University in St. Louis, priority 2005, dated 2011):
Entries after “also recorded” stand apart in the source; their conditions may differ. Where two headings read alike, the source gives them in different places. One block for each molecule: values may come before it. Where a SMILES comes first, the peptide text is derived from it. Where no end group is shown, it is not given here. [ ]: non-standard residue; d: D form. The star is where a group is joined. Cypate = CC1(C)C(/C=C/C=C/C=C/C=C2/N(CCC(=O)*)c3ccc4ccccc4c3C2(C)C)=[N+](CCC(=O)O)c2ccc3ccccc3c21

Tests used:
A549 tumor [1] = experiment: In vivo fluorescence optical imaging and ex vivo organ distribution in A549 tumor-bearing nude mice; settings: for uptake / retention in A549 tumor: 0.3 μmol per kg via lateral tail vein, fluorescence imaging
Description: All in vivo studies were performed in compliance with the Washington University in St Louis Animal Study Committee's requirements for the care and use of laboratory animals in research. Nude mice (18-22 g) were anesthetized with xylazine/ketamine cocktail via intraperitoneal injection and placed in a supine position. The mice were injected subcutaneously with A549 cells (1×10^6) in the lower back of the mice. Tumor masses were palpable at 5-7 days post implant, which reached 5 mm in 10-15 days. Prior to injection of the probe, the mice were anesthetized as described above. A 29-gauge needle was used to inject the probes into the mouse via the lateral tail vein. The molecular probe (100 μL) was injected via the lateral tail vein at 0.3 μmol per kg of body weight. […] [SEQ ID NO:1] were constituted in a vial, and doses of 0.3 μmol per kg of body weight were injected into the A549 tumor-bearing mice.
A non-invasive in vivo continuous wave fluorescence imaging apparatus was used to visualize the distribution and preferential tissue uptake of the cypate-peptide molecular beacons in the nude mice (Achilefu (2004) Technol. Cancer Res. Treat. 3:393-409, incorporated herein by reference). Light from two laser diodes of nominal wavelength 780 nm and nominal power of 50 mW was launched into a fiber optic bundle. Two laser diodes were used to produce as much uniform illumination of the whole animal or organ parts as possible. The nominal 50 mW of incident power was reduced to about 44 mW at the output of the fiber optic bundle. A de-focusing lens in position after the bundle expanded the beam such that nearly the whole animal was illuminated. A Photometrics CCD camera (16 bit, 1024×1024 pixel, back illuminated, thermoelectric Peltier cooled with forced air) was used to capture the emitted photons. An interference filter (830 nm) was mounted in front of the CCD camera input lens such that only emitted fluorescent light from the contrast agent was imaged. Real-time acquisition, display and data processing software (WinView/32) was used to obtain the optical image. The samples were dissolved in 20% aqueous DMSO and animals were injected with doses of 0.3 μmol/kg body weight via the lateral tail vein. Injected volumes were 100 μL for each mouse. Data analysis consisted of subtracting (pixel by pixel) the pre-injection image from the post injection images, and displaying the false color results. Integration of the relative fluorescence intensities of tumor vs. surrounding tissues indicated the extent of selective uptake of the contrast agent. At the completion of the study, the mice were euthanized and some organ parts were excised and rinsed with water. The tissues were placed under the CCD camera and the fluorescence emission from each organ was measured after excitation with the 780 nm laser sources. Tissue parts, instead of whole organs, were used to minimize problems associated with depth-dependent non-linear fluorescence emission. A statistical program in the WinView package was used to estimate the mean fluorescence intensity per organ part.
In vivo optical imaging studies using the cypate-peptide optical probes were performed and analyzed as described above in Example 1. […]

[2] = Absorption and emission spectral properties in 20% aqueous DMSO; type: physicochemical
Description: The spectral properties of cypate and the cypate-peptide conjugates were determined in 20% aqueous DMSO, which solubilizes all the compounds. […] Absorbance measurements were performed with a Beckman Coulter DU 640 spectrophotometer. The fluorescence spectra were recorded on Fluorolog-3 fluorometer (HORIBA Jobin Yvon Inc., Edison, N.J.). To prepare the stock solutions, a high precision analytical balance was used to weigh >2 mg of each compound, which was dissolved in DMSO. The DMSO solutions were then diluted with water to obtain a final solution of 20% aqueous DMSO. An aliquot (known volume) of the solution was transferred to a cuvette with 1 μL precision micropipettes and diluted with 20% aqueous DMSO solvent mixture to give a working solution that absorbs at <1.0 absorbance unit. Aliquots of the working solution were diluted with 20% aqueous DMSO and used to determine the molar absorptivity of each compound. For fluorescence measurements, probe solutions with 0.1 absorbance units were used to minimize inner filter effects.
Previous studies have shown that this solvent mixture boosts fluorescence intensity and is well tolerated by rodents. Additionally, the dyes and their peptide conjugates are soluble in this solvent mixture, providing a common medium for spectral measurements.
Absorbance spectra were measured on a Beckman Coulter DU 640 UV-Visible spectrophotometer. Fluorescence spectra were recorded on a HORIBA Jobin Yvon Fluorolog-3 fluorometer. Stock solutions (1.0 mM) of the conjugates were prepared by dissolving each sample in 80% aqueous DMSO. UV-Vis and fluorescence measurements were carried out by adding 5.0 μL of the stock solutions via a micropipette into 3 mL of 20% aqueous DMSO in a quartz cuvette.

A549 cells [3] = experiment: Cellular internalization and blocking studies by fluorescence microscopy (Example 1); settings: for internalization in A549 cells: 1 μM
[4] = target: T1, purified human αvβ3 integrin protein (Homo sapiens, UniProt P05106+P06756); experiment: Competitive αvβ3 integrin receptor binding assay with 125I-echistatin tracer (Example 2)
T1 construct: purchased Chemicon International, Inc. (Temecula, Calif.)
Description: The binding affinities were measured based on the competitive binding between purified αvβ3 integrin (ABI) and peptide ligands. Echistatin is a polypeptide that binds irreversibly with high affinity and specificity to ABI. ^125I-echistatin was used as a tracer in ABI binding assays.
Receptor binding assays were performed by using purified human αvβ3 integrin protein from Chemicon International, Inc. (Temecula, Calif.). Assays were carried out using the Millipore Duropore membrane 96-well plates and the Millipore MultiScreen system (Bedford, Mass.). The 96-well membrane plate was blocked with 0.1% Polythylenimine blocking solution overnight at 4° C. ^125I-echistatin (50 nmol/L) was added to the binding buffer (50 mM Tris-HCl, pH 7.4, 100 mM NaCl, 2 mM CaCl2, 1 mM MgCl2, 1 mM MnCl2, 1% BSA) containing integrin protein (50 ng per well in 96-well membrane plate) and ligands in a total volume of 200 μL per well. The concentration range of ligand was between 0.01 μM and 100 μM. The mixtures were incubated for 2 h at room temperature, the ABI was then filtered by centrifugation at 1500 g and washed three times with 0.20 mL of ice-cold binding buffer. The filters containing radioactivity bound ABI were removed using a punch apparatus and counted using a Packard Cobra II Auto-gamma counter (Meriden, Conn.). […] Radiolabeling of ^125I-echistatin (Amersham Biosciences, Piscataway, N.J.) was carried out in a mixture of 0.25% BSA, 5.0% lactose, 0.21% citric acid and aprotinin (0.9 TIU/ml).

A549 cells [5] = experiment: CyQuant cytotoxicity and proliferation assay; type: cell-based, human; settings: 48 hours
Description: Cells were seeded at 2.5×10^4 cells/well and grown in 96 well plates in the presence of 0−1.5×10^−5 M cypate conjugated peptides for 24 or 48 hours. Cell proliferation was measured using the CyQuant proliferation assay from Molecular Probes (Eugene, Oreg.) per the manufacturer's protocol. Briefly, after incubation the microplate was inverted to remove the media and frozen at −70° C. overnight. The microplate was thawed at room temperature and 200 μL of the CyQuant GR dye/cell-lysis buffer was added to each well. […]
Because the Cyquant assay is based on the adherence of a dye to nucleic acids, the assay is a measure of both proliferative and cytotoxic effects.

A549 tumor [6] = test system: A549 tumor; set-up: species or system mice; settings: mouse, in vivo
Excerpt: The hypothesis that the “RD” motif was solely responsible for the tumor uptake was further tested by injecting ^111In-DOTA-GRD [SEQ ID NO:15] (120 μCi; 1 Ci=37 GBq) into A549 tumor-bearing mice.

[7] = Table 2, read-out: IC50 (αvβ3 integrin binding affinities)

Molecule: CC1(C)C(/C=C/C=C/C=C/C=C2\N(CCCCS(=O)(=O)O)c3ccc4ccccc4c3C2(C)C)=[N+](CCCCS(=O)(=O)[O-])c2ccc3ccccc3c21 [indocyanine green, reference compound]
uptake / retention in A549 tumor (A549 tumor [1]): None of the three non-ABI-specific probes were retained in the A549 tumor tissue

Molecule: Cypate-3-GRDSPK ({Cypate‑3}-GRDSPK; listed as Homo sapiens) [Cyp-3-GRD]
^abεmax [2]: 128,538 cm^−1Mol^−1
^abλmax [2]: 684 nm
^emλmax [2]: 703 nm
internalization in A549 cells (A549 cells [3]; 37° C.): internalized
cellular localization at 4° C. (A549 cells [3]; A549 cells incubated at 4° C.): remained in the peripheral region of the cell membrane
translocation into the nucleus (A549 cells [3]; A549 cells, 37° C.): did not translocate into the nucleus

Molecule: cytate [reference compound]
uptake / retention in A549 tumor (A549 tumor [1]): None of the three non-ABI-specific probes were retained in the A549 tumor tissue

Molecule: GRDSPK (listed as Homo sapiens) [GRD peptide]
blocking of Cyp-GRD uptake in the tumor by co-injection (A549 tumor [1]; equimolar, 0.3 μmol/kg body weight, 24 h post injection): unable to block

IC50 ([4]; Table 3, read-out: IC50): 0.722 µM
Molecule: CC(C)[C@H](NC(=O)[C@@H](NC(=O)[C@@H]1CSSC[C@H](NC(=O)[C@H](N)Cc2ccccc2)C(=O)N[C@@H](Cc2ccc(O)cc2)C(=O)N[C@H](Cc2c[nH]c3ccccc23)C(=O)N[C@@H](CCCCN)C(=O)N[C@@H]([C@@H](C)O)C(=O)N1)[C@@H](C)O)C(=O)N[C@@H](CCCNC(=N)N)C(=O)NCC(=O)N[C@@H](CC(=O)O)C(N)=O [H-DPhe-Cyclo(Cys-Tyr-DTrp-Lys-Thr-Cys)-Thr-Val-Arg-Gly-Asp-NH2] (HELM PEPTIDE1{[dF].C.Y.[dW].K.T.C.T.V.R.G.D.[am]}$PEPTIDE1,PEPTIDE1,2:R3-7:R3$$$V2.0)

IC50 [4, 7]: 79.5 µM
Molecule: CC(C)[C@@H]1NC(=O)[C@@H](Cc2ccccc2)NC(=O)[C@H](CC(=O)O)NC(=O)CNC(=O)[C@H](CCCNC(=N)N)NC(=O)[C@H](CCCCNC(=O)CCN2/C(=C/C=C/C=C/C=C/C3=[N+](CCC(=O)O)c4ccc5ccccc5c4C3(C)C)C(C)(C)c3c2ccc2ccccc32)NC1=O [Cyp-cyclo-RGD, Cypate-cyclo[RGDfVK^(Cypate)]] (cyclo(RGD[dF]VK(Cypate)))
cytotoxicity (CyQuant), longer treatment (A549 cells [5]): some cytotoxicity
uptake / retention in A549 tumor (A549 tumor [1]): preferentially localized
accumulation / retention in nontarget tissues (A549 tumor [1]; 24 h post injection): equally high
retention in the tumor, cyclic versus linear Cyp-RGD (A549 tumor [1]; 24 h post injection): higher by a factor of three

Molecule: N=C(N)NCCC[C@H](NC(=O)CNC(=O)CN1CCN(CC(=O)O)CCN(CC(=O)O)CCN(CC(=O)O)CC1)C(=O)N[C@@H](CC(=O)O)C(=O)N[C@@H](CO)C(=O)N1CCC[C@H]1C(=O)N[C@@H](CCCCN)C(=O)O [^111In-DOTA-GRD, metal not drawn] (HELM PEPTIDE1{[O=C(O)CN1CCN(CC(=O)O)CCN(CC(=O)[*:2])CCN(CC(=O)O)CC1].G.R.D.S.P.K}$$$$V2.0)
clearance (scintigraphy) (A549 tumor [6]): rapid renal clearance
localization of the material (A549 tumor [6]): nearly all of the material localized in the bladder

Molecule: CC1(C)C(=CC=CC=CC=CC2=[N+](CCC(=O)O)c3ccc4ccccc4c3C2(C)C)N(CCC(=O)N[C@H]2CSSC[C@@H](C(N)=O)NC(=O)[C@H](CC(=O)O)NC(=O)CNC(=O)[C@H](CCCNC(=N)N)NC2=O)c2ccc3ccccc3c21 [Cypate-cyclo(CRGDC)-NH2] (HELM PEPTIDE1{[CC1(C)C(/C=C/C=C/C=C/C=C2/N(CCC(=O)[*:2])c3ccc4ccccc4c3C2(C)C)=[N+](CCC(=O)O)c2ccc3ccccc3c21].C.R.G.D.C.[am]}$PEPTIDE1,PEPTIDE1,2:R3-6:R3$$$V2.0)
IC50 [4, 7]: 4.6 µM

IC50 ([4]; Table 3, read-out: IC50): 1.89 µM
Molecule: CC(C)[C@@H]1NC(=O)[C@@H](Cc2ccccc2)NC(=O)[C@H](CC(=O)O)NC(=O)CNC(=O)[C@H](CCCNC(=N)N)NC(=O)[C@H](CCCCN)NC1=O [Cyclo(DPhe-Val-Lys-Arg-Gly-Asp)-OH] (HELM PEPTIDE1{R.G.D.[dF].V.K}$PEPTIDE1,PEPTIDE1,1:R1-6:R2$$$V2.0)

^abεmax [2]: 244,400 cm^−1Mol^−1
^abλmax [2]: 786 nm
^emλmax [2]: 811 nm
time of clearance from blood by the liver (A549 tumor [1]; after injection): ≤ 4 h
Molecule: CC1(C)C(/C=C/C=C/C=C/C=C2/N(CCC(=O)O)c3ccc4ccccc4c3C2(C)C)=[N+](CCC(=O)[O-])c2ccc3ccccc3c21 [Cypate, cypate, reference compound]
uptake / retention in A549 tumor (A549 tumor [1]): not retained in the tumor; also recorded: None of the three non-ABI-specific probes were retained in the A549 tumor tissue
internalization in A549 cells (A549 cells [3]; 37° C.): did not internalize
